Data from PMC3445262 (International immunopharmacology, 2011).

What was measured:
[1] = target: CB2 receptor mutant W5.43(194)Y (Homo sapiens, UniProt P34972, W194Y); format: binding; conditions: W5.43(194)Y vs CB2 WT
[2] = target: CB2 W194F mutant receptor in HEK293 cells (Homo sapiens, UniProt P34972, W194F); format: cell-based
[3] = target: CB2 W194Y mutant receptor in HEK293 cells (Homo sapiens, UniProt P34972, W194Y); format: cell-based
[4] = target: CB2 WT receptor in HEK293 cells (Homo sapiens, UniProt P34972); format: cell-based
Chain of CB2 WT receptor in HEK293 cells (P34972 whole entry): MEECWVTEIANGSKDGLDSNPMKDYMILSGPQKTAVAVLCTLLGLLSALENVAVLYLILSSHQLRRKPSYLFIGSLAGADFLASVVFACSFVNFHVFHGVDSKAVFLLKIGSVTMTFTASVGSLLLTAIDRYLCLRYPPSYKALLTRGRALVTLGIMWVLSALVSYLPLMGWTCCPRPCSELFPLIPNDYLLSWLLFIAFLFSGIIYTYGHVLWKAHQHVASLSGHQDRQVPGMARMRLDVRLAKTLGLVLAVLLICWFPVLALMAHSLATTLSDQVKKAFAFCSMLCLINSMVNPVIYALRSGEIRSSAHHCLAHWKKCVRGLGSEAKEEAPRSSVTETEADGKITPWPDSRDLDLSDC

[5] = target: CB2 W194A mutant receptor in HEK293 cells (Homo sapiens, UniProt P34972, W194A); format: cell-based
Chain of CB2 W194A mutant receptor in HEK293 cells (P34972 whole entry W194A): as the sequence (P34972 whole entry) above, with W194A counted along it

CB1 W5.43(280)A [6] = conditions: cited from earlier work
CB1 W5.43(280)A [7] = conditions: cited from earlier work; remark: listed apart in the source

Chain of CB2 receptor mutant W5.43(194)Y (P34972 whole entry W194Y): as the sequence (P34972 whole entry) above, with W194Y counted along it
Chain of CB2 W194Y mutant receptor in HEK293 cells (P34972 whole entry W194Y): as the sequence (P34972 whole entry) above, with W194Y counted along it
Chain of CB2 W194F mutant receptor in HEK293 cells (P34972 whole entry W194F): as the sequence (P34972 whole entry) above, with W194F counted along it

Compound: CCCCCCC(C)(C)c1ccc([C@@H]2C[C@H](O)CC[C@H]2CCCO)c(O)c1 [CP55940]
- Reduction of binding affinity by W5.43(194)Y mutation compared with wild-type [1]: no effect

Compound: C=C[C@@]1(C)CC(=O)[C@]2(O)[C@@]3(C)[C@@H](O)CCC(C)(C)[C@@H]3[C@H](O)[C@H](OC(C)=O)[C@@]2(C)O1 [Forskolin, forskolin]
- EC50 [2]: 1810 nM
- EC50 [3]: 2020 nM
- EC50 [4]: 1320 nM
- EC50 [5]: 2420 nM

Compound: Cc1c(C(=O)c2cccc3ccccc23)c2cccc3c2n1[C@H](CN1CCOCC1)CO3 [WIN55212-2]
- Reduction of binding by CB1 W5.43(280)A mutation (CB1 W5.43(280)A [6]): 16.8 fold
- Reduction of WIN55212-2 stimulated GTPγS binding by CB1 W5.43(280)A mutation (CB1 W5.43(280)A [7]): 245 fold

Compound: SR144528
- Reduction of binding affinity by W5.43(194)Y mutation compared with wild-type [1]: 5 fold
